# Experimental data taken from patent US12194039B2, “Methods of treating heart failure by administering omecamtiv mecarbil” (Cytokinetics, Inc., priority 2020, dated 2025).
# Where two headings read alike, the source gives them in different places.
# Experiments:
# P-gp = P-gp (Homo sapiens, UniProt P08183); assay: Transporter substrate assessment; assay type: in vitro ADME; conditions: result in words
# [1] = Drug interactions: change in OM pharmacokinetics in the presence of co-administered drugs; assay type: in vivo, human
# MATE 2-K = MATE 2-K (Homo sapiens, UniProt Q86VL8); assay: In vitro inhibition by OM; assay type: in vitro ADME; conditions: result in words
# Chain of MATE 2-K (Q86VL8 1-566 isoform Q86VL8-3): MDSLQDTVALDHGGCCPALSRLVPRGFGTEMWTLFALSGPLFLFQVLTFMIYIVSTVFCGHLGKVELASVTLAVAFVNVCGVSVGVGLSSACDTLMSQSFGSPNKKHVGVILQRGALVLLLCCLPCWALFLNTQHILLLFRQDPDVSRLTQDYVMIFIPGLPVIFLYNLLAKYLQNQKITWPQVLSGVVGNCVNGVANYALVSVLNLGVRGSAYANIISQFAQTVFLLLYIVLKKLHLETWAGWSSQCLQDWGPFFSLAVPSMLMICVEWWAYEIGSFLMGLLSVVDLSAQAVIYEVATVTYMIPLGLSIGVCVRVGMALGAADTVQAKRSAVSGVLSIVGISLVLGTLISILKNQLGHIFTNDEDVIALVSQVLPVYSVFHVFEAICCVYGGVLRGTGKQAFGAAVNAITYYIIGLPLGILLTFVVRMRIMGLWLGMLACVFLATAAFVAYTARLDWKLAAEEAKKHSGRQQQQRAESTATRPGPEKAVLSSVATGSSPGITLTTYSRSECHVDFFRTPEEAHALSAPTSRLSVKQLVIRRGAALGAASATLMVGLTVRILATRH
# CYP3A4 = assay: In vitro induction by OM; assay type: in vitro ADME; conditions: result in words
# Description: OM may be administered with drugs that are substrates of CYP3A4, CYP2C8, P-gp or BCRP.
# [2] = Clinical pharmacokinetics: distribution and elimination; conditions: human, in vivo
# Description: The volume of distribution at steady state was approximately 4.8-6.6 L/kg.
# Clearance of OM after oral administration was primarily through metabolism in the liver. […] Following oral administration of radiolabeled OM to healthy subjects, approximately 49% of the dose was excreted in urine (primarily as metabolites with 8% of parent compound recovered) and 38% in feces (primarily as unchanged drug).
# [3] = system: patients with heart failure and reduced ejection fraction; assay type: in vivo, human; conditions: for Creatinine, change from baseline, mean / Heart rate, change from baseline, mean / Potassium, change from baseline, mean / Systolic blood pressure, change from baseline, mean / Troponin, change from baseline, median: N = 4110
# Procedure: All eligible participants were randomized 1:1 to oral administration of either placebo or omecamtiv mecarbil (pharmacokinetic-guided dosing: 25, 37.5 or 50 mg) twice daily. Pre-dose plasma concentrations of omecamtiv mecarbil were measured at weeks 2 and 6 with respective dose adjustments on weeks 4 and 8. The patient and investigator were blinded to the plasma concentrations and dispensed dose. The full schedule of assessments is provided in the protocol available at NEJM.org. Study drug was temporarily withheld if the participant experienced clinical signs or symptoms consistent with acute myocardial infarction or ischemia.
# Other outcomes of interest included the effects of omecamtiv mecarbil on vital signs and selected laboratory values (Table 3).
# Continuous variables were summarized as means±standard deviations (SD) or medians and first and third quartiles (Q1, Q3), as appropriate. Categorical variables were summarized as counts and percentages. […] The change from baseline on NT-proBNP analysis included all participants who underwent randomization. The difference column is the exponentiated change from baseline on the log scale using a mixed model containing the log baseline value, region, baseline eGFR, scheduled visit, treatment group and interaction of treatment with scheduled visit.
# [4] = assay type: in vivo; conditions: human, plasma, oral, at 6 weeks, read-out: Omecamtiv mecarbil PK value (plasma concentration), median
# [5] = system: patients with or without AFF; assay type: in vivo; conditions: for Troponin I increase: at 6 weeks; for Treatment effect on primary outcome by AFF at baseline: multivariable covariate-interaction model
# [6] = CYP2D6 genotype: PM (N = 8) versus EM (N = 16)
# [7] = with P-gp inhibitor amiodarone 600 mg SD, OM 50 mg SD, vs OM alone
# [8] = with moderate CYP3A inhibitor diltiazem 240 mg QD × 8 days, OM 10 mg SD, vs OM alone
# [9] = with pH modifying agent omeprazole 40 mg QD × 6 days, OM 50 mg SD, vs OM alone
# [10] = with strong CYP3A and P-gp inhibitor ketoconazole 200 mg BID × 8 days, OM 10 mg SD, vs OM alone
# Chain of P-gp (P08183 whole entry): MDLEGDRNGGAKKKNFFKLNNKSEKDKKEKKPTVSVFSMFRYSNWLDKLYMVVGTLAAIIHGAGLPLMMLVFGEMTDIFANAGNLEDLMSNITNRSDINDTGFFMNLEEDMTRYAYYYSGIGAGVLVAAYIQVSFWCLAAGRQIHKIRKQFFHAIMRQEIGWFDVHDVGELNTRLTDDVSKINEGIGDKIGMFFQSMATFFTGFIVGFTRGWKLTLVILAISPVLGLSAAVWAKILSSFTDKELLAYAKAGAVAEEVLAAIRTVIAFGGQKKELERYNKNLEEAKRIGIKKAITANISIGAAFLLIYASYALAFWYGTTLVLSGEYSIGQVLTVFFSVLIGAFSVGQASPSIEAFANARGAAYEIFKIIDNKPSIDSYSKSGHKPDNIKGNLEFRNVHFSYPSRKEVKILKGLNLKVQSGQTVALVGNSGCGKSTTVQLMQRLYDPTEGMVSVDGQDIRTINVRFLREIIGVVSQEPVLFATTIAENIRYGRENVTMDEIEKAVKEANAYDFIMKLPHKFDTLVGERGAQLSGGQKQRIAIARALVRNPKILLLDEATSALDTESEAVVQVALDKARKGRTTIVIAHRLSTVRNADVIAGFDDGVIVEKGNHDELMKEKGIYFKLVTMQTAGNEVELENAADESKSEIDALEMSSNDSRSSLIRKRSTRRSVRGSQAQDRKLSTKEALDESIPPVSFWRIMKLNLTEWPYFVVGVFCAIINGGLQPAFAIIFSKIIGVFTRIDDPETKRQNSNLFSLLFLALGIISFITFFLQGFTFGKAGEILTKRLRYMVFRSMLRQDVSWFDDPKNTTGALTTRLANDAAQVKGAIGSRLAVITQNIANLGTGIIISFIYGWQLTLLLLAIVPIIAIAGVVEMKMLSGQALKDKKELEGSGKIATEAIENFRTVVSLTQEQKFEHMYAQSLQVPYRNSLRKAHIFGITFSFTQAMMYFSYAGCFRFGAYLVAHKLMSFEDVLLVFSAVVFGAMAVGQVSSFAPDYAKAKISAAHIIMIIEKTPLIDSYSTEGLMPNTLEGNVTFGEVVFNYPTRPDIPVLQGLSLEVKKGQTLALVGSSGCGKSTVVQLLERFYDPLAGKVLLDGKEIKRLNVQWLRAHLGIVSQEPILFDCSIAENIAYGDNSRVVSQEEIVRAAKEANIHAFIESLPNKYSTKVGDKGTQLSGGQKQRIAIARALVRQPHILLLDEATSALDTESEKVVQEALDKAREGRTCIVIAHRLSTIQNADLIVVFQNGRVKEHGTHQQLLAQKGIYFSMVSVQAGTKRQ
smiles,measurement,setting,value
COC(=O)N1CCN(Cc2cccc(NC(=O)Nc3ccc(C)nc3)c2F)CC1 [omecamtiv mecarbil],Substrate of P-gp,P-gp,substrate
same,% Change of OM AUC (↑ = increase),[1]; [6],↑30%
same,% Change of OM Cmax (↓ = decrease),[1]; [6],↓18%
same,Mean Ratio of OM AUC (90% CI),[1]; [6],1.30 (0.93-1.82)
same,Mean Ratio of OM Cmax (90% CI),[1]; [6],0.82 (0.63-1.07)
same,% Change of OM AUC (↑ = increase),[1]; [7],↑ 21%
same,Mean Ratio of OM AUC (90% CI),[1]; [7],1.21 (1.08-1.36)
same,Mean Ratio of OM Cmax (90% CI),[1]; [7],1.08 (0.96-1.22)
same,% Change of OM Cmax (↓ = decrease),[1]; [8],↓21%
same,Mean Ratio of OM AUC (90% CI),[1]; [8],1.08 (0.97-1.22)
same,Mean Ratio of OM Cmax (90% CI),[1]; [8],0.79 (0.60-1.04)
same,Mean Ratio of OM AUC (90% CI),[1]; [9],0.95 (0.82-1.09)
same,Mean Ratio of OM Cmax (90% CI),[1]; [9],1.01 (0.95-1.07)
same,% Change of OM AUC (↑ = increase),[1]; [10],↑51%
same,Mean Ratio of OM AUC (90% CI),[1]; [10],1.51 (1.20-1.91)
same,Mean Ratio of OM Cmax (90% CI),[1]; [10],1.03 (0.76-1.40)
same,Inhibition of MATE 2-K,MATE 2-K,inhibitor
same,Induction of CYP3A4,CYP3A4,inducer
same,Renal clearance as share of the systemic clearance,[2],less than 10%
same,CL renal,"[2]; oral, read-out: Mean renal clearance (converted)",16.7 mL/min
same,clearance,"[2]; oral, read-out: Total systemic clearance (converted)",195 mL/min
same,half-life,"[2]; patients with heart failure, read-out: Median half-life",23 to 32 h
same,Vd,[2]; read-out: Volume of distribution at steady state,4.8 to 6.6 L/kg
same,"Creatinine, change from baseline, difference vs placebo",[3]; Week 24,0.007 mg/dL
same,"Heart rate, change from baseline, difference vs placebo",[3]; Week 24,−1.61 bpm
same,"Potassium, change from baseline, difference vs placebo",[3]; Week 24,0.002 mmol/L
same,"Systolic blood pressure, change from baseline, difference vs placebo",[3]; Week 24,−0.13 mmHg
same,"Creatinine, change from baseline, mean",[3]; Week 24,0.03 mg/dL
same,"Heart rate, change from baseline, mean",[3]; Week 24,−2.1 bpm
same,"Potassium, change from baseline, mean",[3]; Week 24,-0.01 mmol/L
same,"Systolic blood pressure, change from baseline, mean",[3]; Week 24,1.4 mmHg
same,"Troponin, change from baseline, median",[3]; Week 24,0.004 ng/mL
same,"NT-proBNP, change from baseline, median","[3]; Week 24, all randomized participants",-251 pg/mL
same,"Troponin, change from baseline, difference vs placebo","[3]; Week 24, lower limit of quantification 0.010 ng/mL",0.004 ng/mL
same,"NT-proBNP, exponentiated change from baseline on the log scale, omecamtiv mecarbil vs placebo","[3]; Week 24, mixed model",0.90
same,NT-proBNP concentrations compared to placebo,"[3]; Week 24, result in words",significantly decreased
same,"Creatinine, change from baseline, difference vs placebo",[3]; Week 48,0.010 mg/dL
same,"Heart rate, change from baseline, difference vs placebo",[3]; Week 48,−1.75 bpm
same,"Potassium, change from baseline, difference vs placebo",[3]; Week 48,-0.007 mmol/L
same,"Systolic blood pressure, change from baseline, difference vs placebo",[3]; Week 48,0.16 mmHg
same,"Troponin, change from baseline, difference vs placebo",[3]; Week 48,0.002 ng/mL
same,"Creatinine, change from baseline, mean",[3]; Week 48,0.06 mg/dL
same,"Heart rate, change from baseline, mean",[3]; Week 48,−2.0 bpm
same,"Potassium, change from baseline, mean",[3]; Week 48,-0.03 mmol/L
same,"Systolic blood pressure, change from baseline, mean",[3]; Week 48,2.0 mmHg
same,"Troponin, change from baseline, median",[3]; Week 48,0.002 ng/mL
same,Heart rate compared to placebo,"[3]; at 24 and 48 weeks, result in words",small but significant decrease
same,"Change in systolic blood pressure, omecamtiv mecarbil vs placebo","[3]; at 24 or 48 weeks, result in words",no significant difference
same,Potassium or creatinine concentrations compared to placebo,"[3]; during the course of the trial, result in words",no change
same,concentration at 6 weeks,[4]; patients not taking digoxin,280 ng/mL
same,concentration at 6 weeks,[4]; patients taking digoxin,286 ng/mL
same,Troponin I increase,[5]; patients in AFF at baseline not taking digoxin,+45%
same,Troponin I increase,[5]; patients in AFF at baseline taking digoxin,+29%
same,Treatment effect on primary outcome by AFF at baseline,[5]; result in words,greater benefit observed in patients not in AFF
same,Treatment effect on primary outcome by AFF at baseline,"[5]; result in words, listed as OM",patients without AFF deriving greater benefit
same,"Serious adverse events, events","[5]; per 2974 patients, over the course of the study (FIG. 21E)",55 events
same,Treatment effect modification by AFF according to digoxin use,[5]; result in words,significantly more pronounced in digoxin users than in non-users
